Here are results for 19 compounds from US20250313555A1, “2-SUBSTITUTED THIAZOLE AND BENZOTHIAZOLE COMPOSITIONS AND METHODS AS DUX4 INHIBITORS” (ALTAY THERAPEUTICS, INC., priority 2022, published 2025).

What all share (format): cell-based
A short description of series [1]: Cell cytotoxicity 50 assay (CC50), MB200 cells, cell titer glo. The note with it: human. The method, then: Cell Cytotoxicity 50 Assay Protocol (CC50) MB200 cells were grown until 80% confluent in F10 media supplemented with rhFGF basic (10 ng/ml), 15% fetal bovine serum, 1% penicillin streptomycin, 1% amphotericin B, and 1 μM dexamethasone. Adherent MB200 cells growing on 10 cm plate were then trypsinized with 1 ml of trypsin. Once the cells detached from the plate, F10 media (10 mL) was added, and the cells were strained through a 70 μm cell strainer. The cells were counted using a mixture of 10 μL cell suspension with 10 μL of trypan blue. Once the total number of cells were counted, a dilution of 200 k/mL was prepared, and the cells were seeded with 10 k cells/well in a 96-well plate in triplicate, making sure to avoid seeding cells in the edges of the plate to avoid edge effects. Using a multichannel pipet, the 200 k/mL cell dilution (50 μL/well) was added into wells B2-B11, C2-C11, and D2-D11 in triplicate. Into a deep well block (DWB), the media for the appropriate cell line (450 μL/well) was added into wells 1-10. Into DWB well 2, 10 mM of drug solution (13.5 μL) was added, followed by an additional volume of the medium (225 μL). The well was pipetted up/down four times. A portion (225 μL) was transferred to well 3, and this process was repeated up to well 10. Using a multichannel pipet, a smaller portion (50 μL/well) was removed from all wells in the DWB and then dispensed on top of the cells in each corresponding row. After adding the drug, the plate was incubated at 37° C. for 72 h. Using a multi-channel pipet, pre-warmed cell titer glo reagent (Promega) (100 μL) was added into every well. After 5 minutes, the total luminescence was measured with a luminometer. CC50 was determined with GraphPad prism template.

Series [2] in a line: Cell cytotoxicity 50 assay (CC50), HEK cells. The note with it: human. The method, then: Cell Cytotoxicity 50 Assay Protocol (CC50) Into a deep well block (DWB), the media for the appropriate cell line (450 μL/well) was added into wells 1-10. Into DWB well 2, 10 mM of drug solution (13.5 μL) was added, followed by an additional volume of the medium (225 μL). The well was pipetted up/down four times. A portion (225 μL) was transferred to well 3, and this process was repeated up to well 10. Using a multichannel pipet, a smaller portion (50 μL/well) was removed from all wells in the DWB and then dispensed on top of the cells in each corresponding row. After adding the drug, the plate was incubated at 37° C. for 72 h. Using a multi-channel pipet, pre-warmed cell titer glo reagent (Promega) (100 μL) was added into every well. After 5 minutes, the total luminescence was measured with a luminometer. CC50 was determined with GraphPad prism template.

The next series relates to MBD3L2 RNA. The series is described as follows: RNA isolation and qPCR to determine MBD3L2 RNA levels in FSHD cells. The note with it: 48 hrs. The method, then: Protocol for RNA Isolation and qPCR to Determine MBD3L2 RNA Levels The protocol describes the process of isolating RNA from cultured cells, converting the RNA to complementary DNA (cDNA), and measuring target gene expression using a quantitative polymerase chain reaction (qPCR). The seed FSHD cells were dispensed into a six-well dish. One day after seeding, the DUX4 inhibitor (11 μM or 3.6 μM/well) was added to the cells. After another 48 hrs, the old media was removed from the cells. The cells were washed with 2 mL of warm phosphate buffered saline (PBS). The PBS was aspirated, and the cells were lysed in each well with 350 μL of RLT buffer+3.5 μL of beta-mercaptoethanol (BME). The lysates were added to fresh, RNAse-free, labeled Eppendorf tubes. The cells were then physically disrupted for […] at level 4 of the bead disrupter to ensure the release of the RNA. The RNA was collected according to standard procedures (i.e., Qiagen kit instructions) as discussed below. The RNA concentrations were standardized to […]. In a PCR tube, RNA (2 μg) in a new Eppendorf tube was diluted with RNase-free water to a 9.5 μL final volume of […] RNA. DNase was used to remove any DNA contamination. A DNase Master Mix was prepared from 1.5 μL/reaction DNase solution (1 unit/μL, Promega), 3 μL/reaction 5× RT buffer (i.e., 250 mM Tris-HCl (pH 8.3), 375 mM KCl, 15 mM MgCl2, and 500 μl 0.1 M DTT; Promega MMLV), and 1 μL/reaction RNase inhibitor solution (RNasin, 40 units/μL, Promega). The DNase Master Mix was added to the standardized RNA samples (5.5 μL/sample). The samples were mixed by agitation and briefly spun down by centrifuge. The samples were heated to 37° C. for 60 min, 80° C. for 5 min, and then cooled to 4° C. The samples were stored on ice until the addition of the next reagents. An RT Reaction Master Mix was prepared from 5 μL/reaction 5× RT buffer, 2 μL/reaction dNTP solution (2.5 mM in each nucleotide), 1 μL/reaction RNase inhibitor solution (RNasin, 40 units/μL, Promega), 1.6 μL/reaction M-MLV reverse transcriptase (200 units/μL, Promega), and 13.4 μL/reaction deionized, RNase-free water. The RT Reaction Master Mix was cooled on ice until use. A 50 μM solution of Random Primer 6 random hexanucleotides (2 μL) was added to each sample. The samples were mixed by agitation and briefly spun down by centrifuge. The samples were heated to 70° C. for 5 min and then cooled to 4° C. The RT Reaction Master Mix (23 μL) was added to each sample. The samples were mixed by agitation and briefly spun down by centrifuge. To convert the RNA to cDNA, the samples were heated to 42° C. for 60 min, 95° C. for 5 min, and then cooled to 4° C. The cDNA product mixture was diluted 5:1 with deionized water (40 μL+160 μL). The samples were run in triplicate, with a methyl-CpG-binding protein 3-like 2 (MBD3L2) target primer and a eukaryotic translation elongation factor 1-alpha (EEF1A) control primer. An qPCR Master Mix was prepared for each primer and stored on ice (4° C.) until use. The qPCR Master Mix included 10 μL/reaction SYBR Green Mix (2×) (ThermoFisher), 1 μL/reaction of the primer mix (i.e., the MBD3L2 PCR Primer mix or the EEF1A Primer mix), and 4 μL/reaction deionized, RNase-free water. To set up the qPCR plate, 15 μL of the appropriate qPCR Master Mix was added to the appropriate wells for each target/primer. After all the targets/primers have been added to the wells, 5 μL of the sample was added to the corresponding wells so that each well is 20 μL total. The plate was covered with a clear sheet. An qPCR run was set up (QuantStudio 5) with the following cycle: […]

SMILES strings stand for the structures.

Take `O=C(CCN1C(=O)CCC1=O)Nc1ccc(-c2nc3ccccc3s2)cc1` [Compound 1]: the CC50 at 72 h in series [1] was 1 to 10 µM; in series [2] it was more than 10 µM. For the same compound, the “qPCR MBD3L2 Inhib at 11 µM” value in the series on MBD3L2 RNA is “YES”.

For `CC(=O)NCCCC(=O)Nc1ccc(-c2nc3ccccc3s2)cc1` [Compound 5], the cytotoxic concentration (CC50) at 72 h in series [1] and in series [2] was more than 10 µM in each case. In the series on MBD3L2 RNA, the “qPCR MBD3L2 Inhib at 11 µM” value was “YES”.

Consider `CC(=O)NCC(C)CC(=O)Nc1ccc(-c2nc3ccccc3s2)cc1` (stereo not drawn) [Compound 9], for which the CC50 at 72 h in series [1] and in series [2] was more than 10 µM throughout. Besides, the “qPCR MBD3L2 Inhib at 11 µM” value in the series on MBD3L2 RNA is “YES”.

Regarding `CCC(=O)NCCCC(=O)Nc1ccc(-c2nc3ccccc3s2)cc1` [Compound 10], the half-maximal cytotoxic concentration (CC50) at 72 h in series [1] and in series [2] was more than 10 µM each time. Moreover, in the series with MBD3L2 RNA, the “qPCR MBD3L2 Inhib at 11 µM” value is “YES”.

In the case of `O=C(CCc1cccnc1)Nc1ccc(-c2nc3ccccc3s2)cc1` [Compound 13], the CC50 at 72 h in series [1] and in series [2] was more than 10 µM each time. The “qPCR MBD3L2 Inhib at 11 µM” value in the series with MBD3L2 RNA is recorded as “YES”.

`O=C(CCc1cnc[nH]1)Nc1ccc(-c2nc3ccccc3s2)cc1` [Compound 14]: the cytotoxic concentration (CC50) at 72 h in series [1] and in series [2] was more than 10 µM in each case. In the series with MBD3L2 RNA, the “qPCR MBD3L2 Inhib at 11 µM” value is recorded as “YES”.

`CC(=O)NCCCC(=O)Nc1ccc(-c2nc3ccc(C)cc3s2)cc1` [Compound 15]: the CC50 at 72 h in series [1] and in series [2] was more than 10 µM throughout. Moreover, the “qPCR MBD3L2 Inhib at 11 µM” value with MBD3L2 RNA is on record as “YES”.

As to `Cc1ccc2nc(-c3ccc(NC(=O)CC4CCCC4)cc3)sc2c1` [Compound 16], the half-maximal cytotoxic concentration (CC50) at 72 h in series [1] and in series [2] was more than 10 µM throughout. In addition, in the series with MBD3L2 RNA, the “qPCR MBD3L2 Inhib at 11 µM” value is reported as “YES”.

For the compound `O=C(CCN1CCCC1=O)Nc1ccc(-c2nc3ccccc3s2)cc1` [Compound 18], the 50% cytotoxic concentration (CC50) at 72 h in series [1] and in series [2] was more than 10 µM each time. Also, the “qPCR MBD3L2 Inhib at 11 µM” value in the series on MBD3L2 RNA is reported as “YES”.

With `O=C(CC1CCCC1)Nc1ccc(-c2nc3ccccc3s2)cc1` [Compound 21], the CC50 at 72 h in series [1] and in series [2] was more than 10 µM throughout. The “qPCR MBD3L2 Inhib at 11 µM” value in the series with MBD3L2 RNA was “YES”.

For `O=C(CCc1cn[nH]c1)Nc1ccc(-c2nc3ccccc3s2)cc1` [Compound 27], the CC50 at 72 h in series [1] and in series [2] was more than 10 µM each time. Moreover, the “qPCR MBD3L2 Inhib at 11 µM” value in the series on MBD3L2 RNA is “YES”.

Take `Cc1ccc2nc(-c3ccc(NC(=O)C4CCC4)cc3)sc2c1` [Compound 29]: the CC50 at 72 h in series [1] was 1 to 10 µM; in series [2], more than 10 µM. Moreover, the “qPCR MBD3L2 Inhib at 11 µM” value in the series on MBD3L2 RNA was “YES”.

For `CC(=O)NCCNC(=O)c1ccc(-c2nc3cc(F)ccc3s2)cc1` [Compound 30], the CC50 at 72 h in series [1] and in series [2] was more than 10 µM in each case. Moreover, the “qPCR MBD3L2 Inhib at 11 µM” value in the series on MBD3L2 RNA was “YES”.

Consider `CC(C)C(=O)NCCCC(=O)Nc1ccc(-c2nc3ccccc3s2)cc1` [Compound 31], for which the CC50 at 72 h in series [1] and in series [2] was more than 10 µM in each case. In addition, the “qPCR MBD3L2 Inhib at 11 µM” value in the series on MBD3L2 RNA is “YES”.

As for `CC(=O)NCCCC(=O)Nc1ccc(-c2nc3ccccc3s2)nc1` [Compound 32], the cytotoxic concentration (CC50) at 72 h in series [1] and in series [2] was more than 10 µM each time. Further, the “qPCR MBD3L2 Inhib at 11 µM” value with MBD3L2 RNA is “YES”.

Take `O=C(CCc1cnco1)Nc1ccc(-c2nc3ccccc3s2)cc1` [Compound 33]: the cytotoxic concentration (CC50) at 72 h in series [1] and in series [2] was more than 10 µM in each case. The “qPCR MBD3L2 Inhib at 11 µM” value in the series on MBD3L2 RNA is on record as “YES”.

For the compound `CN(C(=O)CCN1C(=O)CCC1=O)c1ccc(-c2nc3ccccc3s2)cc1` [Compound 34], the CC50 at 72 h in series [1] and in series [2] was more than 10 µM throughout. Moreover, in the series with MBD3L2 RNA, the “qPCR MBD3L2 Inhib at 11 µM” value is on record as “YES”.

In the case of `CC(=O)OCCCC(=O)Nc1ccc(-c2nc3ccc(C)cc3s2)cc1` [Compound 36], the CC50 at 72 h is more than 10 µM in series [1] and 1 to 10 µM in series [2]. Also, the “qPCR MBD3L2 Inhib at 11 µM” value in the series on MBD3L2 RNA is listed as “YES”.

As for `O=C(CCN1C(=O)CCC1=O)Nc1ccc(-c2nc3ccccc3s2)nc1` [Compound 37], the CC50 at 72 h in series [1] and in series [2] was more than 10 µM throughout. Further, the “qPCR MBD3L2 Inhib at 11 µM” value in the series on MBD3L2 RNA is given as “YES”.
